Measured values: PubChem BioAssay AID179 (DTP/NCI, 2004)
The source made the active and inactive calls.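 The calls were made as follows: active = compounds giving half or more protection of infected cells from virus-caused growth loss, again on retest; inactive = the rest.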

Test system: CEM cells HIV-1 protection, formazan growth assay
Assay: NCI AIDS Antiviral Assay
Details: for IC50: measured here: growth of uninfected CEM cells
Procedure, shortened: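 Steps: treat uninfected and HIV-1-infected human CEM cells at five drug levels; quantify growth by soluble formazan; retest any compound reaching 50% protection; classify actives from the retest.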

Row | Structure (SMILES) | EC50 [µM] | IC50 [µM] | outcome
1 | COc1ccc(NC(=O)C(=O)c2c(O)c3ccc(O)cc3oc2=O)c([N+](=O)[O-])c1 | > 447 | 229 | 
2 | COC(=O)c1cc(Br)c(C(=O)C(Cl)(Cl)Cl)[nH]1 | > 200 | > 200 | 
3 | Cc1ccc(S(=O)(=O)N2CCCN(S(=O)(=O)c3ccc(C)cc3)CC2)cc1 | > 45.7 | > 45.7 | 
4 | C=CC(C)(C)C1Oc2cc(O)ccc2C(=O)C1c1ccc(OC)c(OC)c1O (stereo not given) | > 200 | 3.09 | 
5 | CC(Oc1ccccc1)C(=O)NNC(=O)OC(C)(C)C (stereo not given) | > 200 | > 200 | 
6 | CCOC(=O)C(=Cc1cccc(Cl)c1)C(=O)OCC | > 91.2 | 6.17 | 
7 | O=C([O-])c1n[nH]c([O-])c1N=Nc1ccc(/C=C/c2ccc(N=Nc3c(C(=O)[O-])n[nH]c3[O-])cc2S(=O)(=O)[O-])c(S(=O)(=O)[O-])c1.[Cu+2].[Cu+2].[Na+] | > 50.1 | > 50.1 | 
8 | O=C(Nc1ccc(NC(=O)Nc2cc(C(=O)Nc3ccc(C4=NCCN4)cc3)ccc2C(=O)Nc2ccc(C3=NCCN3)cc2)cc1)Nc1cc(C(=O)Nc2ccc(C3=NCCN3)cc2)ccc1C(=O)Nc1ccc(C2=NCCN2)cc1 | 31.6 | > 100 | 
9 | COc1cccc(OC)c1C(=O)OCc1ccccc1 | > 95.5 | > 95.5 | 
10 | O=c1oc2cc(O)ccc2c(O)c1C(c1ccccc1)c1c(O)c2ccc(O)cc2oc1=O | > 200 | 178 | 
11 | O=S1(=O)OC(c2ccc(O)c(Cl)c2)(c2ccc(O)c(Cl)c2)c2ccccc21 |  |  | inactive
12 | O=C1CCC(C(=O)O)C2=C1CCCC2 (stereo not given) |  |  | inactive
13 | Cc1ccccc1N=O | > 200 | 9.77 | 
14 | CCOC(=O)C1C(=O)c2cccc(OC)c2C2COC(=O)N12 (stereo not given) | > 251 | 229 | 
15 | O=c1ccc2cc3ccc4cccc5ccc(c2o1)c3c45 |  |  | inactive
16 | [Pt].c1ccc([PH+](c2ccccc2)c2ccccc2)cc1.c1ccc([PH+](c2ccccc2)c2ccccc2)cc1.c1ccc([PH+](c2ccccc2)c2ccccc2)cc1.c1ccc([PH+](c2ccccc2)c2ccccc2)cc1 | > 11 | > 11 | 

Row | Structure (SMILES) | EC50 [µM] | IC50 [µM] | outcome
17 | O=C(O)c1cc(OS(=O)(=O)O)c(OS(=O)(=O)O)c(OS(=O)(=O)O)c1 | > 200 | 11.2 | 
18 | O=C1c2cc3ccccc3cc2C2(c3ccc(Cl)cc3)NCCN12 (stereo not given) | > 200 | 32.4 | 
19 | COc1cc(/C=C2\C(=O)N(c3ccc(Cl)cc3)C(c3ccccc3)S2(=O)=O)cc(OC)c1OC (stereo not given) |  |  | inactive
20 | CC1(C)SSC(C)(C)SS1 | > 200 | > 200 | 
21 | Oc1ccccc1C1SCc2nc3ccccc3n21 (stereo not given) | > 26.9 | > 26.9 | 
22 | O=C(c1nc2ccccc2[nH]c1=O)C(O)c1ccco1 (stereo not given) | > 794 | 380 | 
23 | COc1c2c(cc3oc(C)c(C)c(=O)c13)OC(C)(C)C=C2 | > 200 | 81.3 | 
24 | O=P(N1CC1)(N1CC1)N1CCN(P(=O)(N2CC2)N2CC2)CC1 | > 200 | 2.24 | 
25 | COc1ccc(/C(=C/n2ccnc2)C(=O)c2ccc(OC)c(OC)c2)cc1 | > 200 | > 200 | 
26 | C=CCN(CCNS(=O)(=O)c1ccc(C)cc1)S(=O)(=O)c1ccc(C)cc1 | > 33.1 | > 33.1 | 
27 | CCOC(=O)C1=C(C)N(NC(=O)OC)C2(N)N(NC(=O)OC)C(C)=C(C(=O)OCC)C12C#N (stereo not given) | > 537 | > 537 | 
28 | Cc1cc(C)c(-n2c(-c3ccccc3)cs/c2=N\N=C2C=C(C(C)(C)C)C(=O)C(C(C)(C)C)=C2)c(C)c1 | > 14.1 | > 14.1 | 
29 | N#CC1=C(N)N(/N=C/c2ccco2)C(c2ccco2)C1(C#N)C#N (stereo not given) | > 200 | 7.94 | 
30 | CC/C(=C(\C#N)c1ccc(Cl)cc1)c1ccc(OCCN(CC)CC)cc1 | > 100 | 2.82 | 
31 | CCOC(=O)/C(=C\c1cccc(C(F)(F)F)c1)[Se]c1ccccc1 | > 18.2 | > 18.2 | 
32 | Cc1cc2c(C(C)C)c(O)c(O)c(C=NCC3CCCN4CCCCC34)c2cc1-c1cc2c(C=NCC3CCCN4CCCCC34)c(O)c(O)c(C(C)C)c2cc1C (stereo not given) | 4.68 | 6.61 | 
